Reference: patent publication US11345694B2, “Antibacterial compounds” (DISCUVA LTD., priority 2017, dated 2022)
In brackets after ≈: the same amount, converted by molar mass. Where two headings read alike, the source gives them in different places.

Columns and labels:
[1] = system: E. coli NCTC 13441 (UPEC); assay: MIC broth microdilution; type: cell-based, Escherichia coli; settings: for MIC: Escherichia coli, NCTC13441
Method in brief: (§1)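 Read-out is visible growth: the MIC is the lowest compound concentration that prevents it after incubating 20-24 hours at 37° C in air. Compounds span 0.39-200 μM final (two-fold steps, up to 2% DMSO) in cation-adjusted Müller-Hinton broth, following CLSI guidelines for planktonic bacteria.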

[2] = system: Acinetobacter baumannii ATCC 17978 (AB); assay: MIC broth microdilution; type: cell-based; settings: for MIC: ATCC17978
Method in brief: as §1

[3] = system: Escherichia coli K12 (EC); assay: MIC broth microdilution; type: cell-based
Method in brief: as §1

[4] = system: Klebsiella pneumoniae ATCC 10031 (KP2); assay: MIC broth microdilution; type: cell-based; settings: for MIC: ATCC10031
Method in brief: (§2)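 Growth inhibition read after 20-24 hour incubation at 37° C in ambient atmosphere; MIC is the lowest compound concentration with no growth. Planktonic bacteria in cation-adjusted Müller-Hinton broth were exposed to two-fold dilutions (0.39-200 μM final; ≤2% DMSO final) per CLSI guidelines.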

[5] = system: Klebsiella pneumoniae ATCC 51504 (KP4); assay: MIC broth microdilution; type: cell-based; settings: ATCC51504
Method in brief: as §1

[6] = system: Pseudomonas aeruginosa ATCC 33359 (PA); assay: MIC broth microdilution; type: cell-based; settings: for MIC: ATCC33359
Method in brief: as §1

[7] = system: Staphylococcus aureus ATCC 35556 (SA); assay: MIC broth microdilution; type: cell-based; settings: for MIC: ATCC35556
Method in brief: as §1

[8] = system: K. pneumoniae ATCC 700603 (KP3); assay: MIC broth microdilution; type: cell-based, Klebsiella pneumoniae; settings: for MIC: Klebsiella pneumoniae, ATCC700603
Method in brief: as §2

[9] = system: K. pneumoniae H151440671 (KP10); assay: MIC broth microdilution; type: cell-based, Klebsiella pneumoniae; settings: for MIC: Klebsiella pneumoniae
Method in brief: as §2

[10] = system: K. pneumoniae H154020667 (KP6); assay: MIC broth microdilution; type: cell-based, Klebsiella pneumoniae; settings: for MIC: Klebsiella pneumoniae
Method in brief: as §2

[11] = system: K. pneumoniae H154300688 (KP9); assay: MIC broth microdilution; type: cell-based, Klebsiella pneumoniae; settings: for MIC: Klebsiella pneumoniae
Method in brief: as §2

[12] = system: K. pneumoniae H154600588 (KP8); assay: MIC broth microdilution; type: cell-based, Klebsiella pneumoniae; settings: for MIC: Klebsiella pneumoniae
Method in brief: as §2

[13] = system: K. pneumoniae H154640784 (KP7); assay: MIC broth microdilution; type: cell-based, Klebsiella pneumoniae; settings: for MIC: Klebsiella pneumoniae
Method in brief: as §2

[14] = system: K. pneumoniae H154680676 (KP5); assay: MIC broth microdilution; type: cell-based, Klebsiella pneumoniae; settings: for MIC: Klebsiella pneumoniae
Method in brief: as §2

[15] = system: K. pneumoniae NCTC 13438 (KP1); assay: MIC broth microdilution; type: cell-based, Klebsiella pneumoniae; settings: for MIC: Klebsiella pneumoniae, NCTC13438
Method in brief: as §2

[16] = system: human hepatocarcinoma cell line ATCC HB-8065 (HepG2); assay: Human cell viability (CellTiter-Glo); type: cell-based; settings: HepG2 cells, 24 h incubation, CellTiter-Glo luminescence, 0.2-100 μM, read-out: IC50 values against the HepG2 cell line
Method in brief: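 HepG2 cells were seeded at 20,000 cells/well in MEM with 10% FBS and, after 24 h, exposed for 24 h at 37° C. to two-fold dilutions (final 0.2-100 μM) in MEM with 1% FBS and 1% DMSO. Viability was read by CellTiter-Glo luminescence, with IC50 from a 4-parameter logistic fit.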

MIC [1]	MIC [2]	MIC [3]	MIC [4]	MIC [5]	MIC [6]	MIC [7]	MIC [8]	MIC [9]	MIC [10]	MIC [11]	MIC [12]	MIC [13]	MIC [14]	MIC [15]	IC50 ([16]; Homo sapiens)	SMILES	also measured
1 to 10 µM (≈ 0.385 to 3.85 µg/mL)	> 100 µM	1 to 10 µM (≈ 0.385 to 3.85 µg/mL)	≤ 1 µM	1 to 10 µM (≈ 0.385 to 3.85 µg/mL)	> 100 µM	> 100 µM	1 to 10 µM (≈ 0.385 to 3.85 µg/mL)	1 to 10 µM (≈ 0.385 to 3.85 µg/mL)	1 to 10 µM (≈ 0.385 to 3.85 µg/mL)	1 to 10 µM (≈ 0.385 to 3.85 µg/mL)	1 to 10 µM (≈ 0.385 to 3.85 µg/mL)	1 to 10 µM (≈ 0.385 to 3.85 µg/mL)	1 to 10 µM (≈ 0.385 to 3.85 µg/mL)	10 to 100 µM (≈ 3.85 to 38.5 µg/mL)	> 100 µM	Cc1cc(-c2[nH]c(N)nc2-c2ccc3c(c2)N(S(C)(=O)=O)CCO3)ccn1 [Example 55, 5-(2-Methylpyridin-4-yl)-4-(4-(methylsulfonyl)-3,4-dihydro-2H-benzo[b][1,4]oxazin-6-yl)-1H-imidazol-2-amine]	
≤ 1 µM	> 100 µM	≤ 1 µM	≤ 1 µM	≤ 1 µM	> 100 µM	> 100 µM	1 to 10 µM (≈ 0.325 to 3.25 µg/mL)	≤ 1 µM	≤ 1 µM	1 to 10 µM (≈ 0.325 to 3.25 µg/mL)	1 to 10 µM (≈ 0.325 to 3.25 µg/mL)	1 to 10 µM (≈ 0.325 to 3.25 µg/mL)	≤ 1 µM	1 to 10 µM (≈ 0.325 to 3.25 µg/mL)	> 100 µM	Cc1cc(-c2[nH]c(N)nc2-c2cc3c(cc2F)OCCN3)ccn1 [Example 52, 4-(7-Fluoro-3,4-dihydro-2H-benzo[b][1,4]oxazin-6-yl)-5-(2-methylpyridin-4-yl)-1H-imidazol-2-amine]	
≤ 1 µM	> 100 µM	1 to 10 µM (≈ 0.305 to 3.05 µg/mL)	≤ 1 µM	1 to 10 µM (≈ 0.305 to 3.05 µg/mL)	> 100 µM	> 100 µM	10 to 100 µM (≈ 3.05 to 30.5 µg/mL)	1 to 10 µM (≈ 0.305 to 3.05 µg/mL)	1 to 10 µM (≈ 0.305 to 3.05 µg/mL)	1 to 10 µM (≈ 0.305 to 3.05 µg/mL)	10 to 100 µM (≈ 3.05 to 30.5 µg/mL)	10 to 100 µM (≈ 3.05 to 30.5 µg/mL)	1 to 10 µM (≈ 0.305 to 3.05 µg/mL)	10 to 100 µM (≈ 3.05 to 30.5 µg/mL)	> 100 µM	Cc1cc(-c2[nH]c(N)nc2-c2ccc3c(c2)NCCC3)ccn1 [Example 58, 5-(2-Methylpyridin-4-yl)-4-(1,2,3,4-tetrahydroquinolin-7-yl)-1H-imidazol-2-amine]	
≤ 1 µM	> 100 µM	≤ 1 µM	≤ 1 µM	1 to 10 µM (≈ 0.328 to 3.28 µg/mL)	> 100 µM	> 100 µM	1 to 10 µM (≈ 0.328 to 3.28 µg/mL)	1 to 10 µM (≈ 0.328 to 3.28 µg/mL)	1 to 10 µM (≈ 0.328 to 3.28 µg/mL)	1 to 10 µM (≈ 0.328 to 3.28 µg/mL)	10 to 100 µM (≈ 3.28 to 32.8 µg/mL)	1 to 10 µM (≈ 0.328 to 3.28 µg/mL)	1 to 10 µM (≈ 0.328 to 3.28 µg/mL)	1 to 10 µM (≈ 0.328 to 3.28 µg/mL)	> 100 µM	Nc1nc(-c2ccc3c(c2)NCCO3)c(-c2ccnc(Cl)c2)[nH]1 [Example 45, 5-(2-Chloropyridin-4-yl)-4-(3,4-dihydro-2H-benzo[b][1,4]oxazin-6-yl)-1H-imidazol-2-amine]	
				1 to 10 µM (≈ 0.308 to 3.08 µg/mL)												Cc1cc(-c2[nH]c(N)nc2-c2ccc3c(c2)OCCO3)ccn1 [Example 32, 4-(2,3-Dihydrobenzo[b][1,4]dioxin-6-yl)-5-(2-methylpyridin-4-yl)-1H-imidazol-2-amine]	MIC UPEC [1]: A (an MIC (μM) of less or equal to 1 is assigned the letter A); MIC AB [2]: D (a MIC of over 100 is assigned the letter D); MIC EC [3]: A (an MIC (μM) of less or equal to 1 is assigned the letter A); MIC KP2 [4]: A (an MIC (μM) of less or equal to 1 is assigned the letter A); MIC PA [6]: D (a MIC of over 100 is assigned the letter D); MIC SA [7]: D (a MIC of over 100 is assigned the letter D); MIC KP3 [8]: B (a MIC of from 1 to 10 is assigned the letter B); MIC KP10 [9]: B (a MIC of from 1 to 10 is assigned the letter B); MIC KP6 [10]: B (a MIC of from 1 to 10 is assigned the letter B); MIC KP9 [11]: B (a MIC of from 1 to 10 is assigned the letter B); MIC KP8 [12]: B (a MIC of from 1 to 10 is assigned the letter B); MIC KP7 [13]: B (a MIC of from 1 to 10 is assigned the letter B); MIC KP5 [14]: B (a MIC of from 1 to 10 is assigned the letter B); MIC KP1 [15]: B (a MIC of from 1 to 10 is assigned the letter B); IC50 [16]: > 100 µM
